Measured values reported in ChEMBL document CHEMBL4613281, “Missing Selectivity of Targeted 4β-Phorbol Prodrugs Expected to be Potential Chemotherapeutics” (2020).
The source made the active and inactive calls. No cut-off for these calls is given here. Starred links: 1 amine or outer side, 2 acyl side, 3 side chain; linkers in the order of their positions; H or OH if unused. Non-standard residues stand in square brackets, D forms with d. Residues, ends and D or L forms follow the SMILES beside them. *: point of attachment. X1 = CC(=O)O[C@@]12[C@H](O*)[C@@H](C)[C@@]3(O)[C@@H](C=C(CO)C[C@]4(O)C(=O)C(C)=C[C@@H]34)[C@@H]1C2(C)C; 12Ado = NCCCCCCCCCCCC(=O)O; Morpholide = C1CN(*)CCO1; CO = O=C([*:1])[*:2]

Columns and labels:
[1] = biological target: Protein kinase C alpha type (Homo sapiens) (UniProt P17252); assay: Displacement of [3H]PDBu from recombinant human PKCalpha expressed in baculovirus infected Sf9 insect cells incubated for 10 mins by liquid scintillation counting method
[2] = system: LNCaP; assay: Antiproliferative activity against human LNCAP cells incubated for 72 hrs in presence of pan-PKC inhibitor Go6983 by MTT assay; format: functional, cell-based
[3] = system: DU-145; assay: Cytotoxicity against human DU145 cells assessed as effect on cell membrane incubated for 72 hrs by LDH assay; format: functional, cell-based
[4] = system: CWR22R; assay: Cytotoxicity against human 22Rv1 cells assessed as effect on cell membrane incubated for 72 hrs by LDH assay; format: functional, cell-based
[5] = system: LNCaP; assay: Cytotoxicity against human LNCAP cells assessed as effect on cell membrane incubated for 72 hrs by LDH assay; format: functional, cell-based
[6] = system: LNCaP; assay: Antiproliferative activity against human LNCAP cells at 20 to 40 uM incubated for 72 hrs by MTT assay relative to control; format: functional
[7] = biological target: T1, Protein kinase C (PKC) (Homo sapiens) (UniProt O94806+P41743+P17252+P05129+Q05655+P05771+Q05513+Q02156+P24723+Q15139+Q04759); assay: Activation of PKC in human 22Rv1 cells assessed as increase in ERK1/ERK2 phosphorylation at 20 uM incubated for 30 mins by Western blot analysis; format: cell-based; details: CWR22R
[8] = system: PC-3; assay: Cytotoxicity against human PC3 cells assessed as effect on cell membrane incubated for 72 hrs by LDH assay; format: functional, cell-based
[9] = biological target: T1, Protein kinase C (PKC) (Homo sapiens); assay: Activation of PKC in human DU145 cells assessed as increase in ERK1/ERK2 phosphorylation at 20 uM incubated for 30 mins by Western blot analysis; format: cell-based; details: DU-145
[10] = system: CWR22R; assay: Up regulation of PCKdelta in human 22Rv1 cells incubated for 72 hrs by Western blot analysis; format: functional, cell-based
[11] = system: CWR22R; assay: Up regulation of PCKalpha in human 22Rv1 cells at 20 uM incubated for 24 hrs by Western blot analysis; format: functional, cell-based
[12] = system: CWR22R; assay: Up regulation of PCKalpha in human 22Rv1 cells incubated for 72 hrs by Western blot analysis; format: functional, cell-based
[13] = system: PC-3; assay: Antiproliferative activity against human PC3 cells at 40 uM incubated for 72 hrs by MTT assay relative to control; format: functional
[14] = system: CWR22R; assay: Up regulation of PSMA in human 22Rv1 cells incubated for 72 hrs by Western blot analysis; format: functional, cell-based
[15] = system: CWR22R; assay: Antiproliferative activity against human 22Rv1 cells at 40 uM incubated for 72 hrs by MTT assay relative to control; format: functional
[16] = biological target: T1, Protein kinase C (PKC) (Homo sapiens); assay: Activation of PKC in human 22Rv1 cells assessed as increase in ERK1/ERK2 phosphorylations at 10 nM incubated for 30 mins by Western blot analysis; format: cell-based; details: CWR22R
[17] = biological target: T1, Protein kinase C (PKC) (Homo sapiens); assay: Activation of PKC in human DU145 cells assessed as increase in ERK1/ERK2 phosphorylation at 10 nM incubated for 30 mins by Western blot analysis; format: cell-based; details: DU-145
[18] = system: DU-145; assay: Antiproliferative activity against human DU145 cells at 1 to 40 uM incubated for 72 hrs by MTT assay; format: functional, cell-based
[19] = system: LNCaP; assay: Antiproliferative activity against human LNCAP cells at 1 to 40 uM incubated for 72 hrs by MTT assay; format: functional, cell-based
[20] = system: PC-3; assay: Antiproliferative activity against human PC3 cells at 1 to 40 uM incubated for 72 hrs by MTT assay; format: functional, cell-based
[21] = system: CWR22R; assay: Antiproliferative activity against human 22Rv1 cells at 1 to 40 uM incubated for 72 hrs by MTT assay; format: functional, cell-based
[22] = system: LNCaP; assay: Antiproliferative activity against human LNCAP cells at 40 uM incubated for 72 hrs by MTT assay relative to control; format: functional
[23] = system: CWR22R; assay: Antiproliferative activity against human 22Rv1 cells incubated for 72 hrs by MTT assay; format: functional, cell-based
[24] = system: LNCaP; assay: Antiproliferative activity against human LNCAP cells incubated for 72 hrs by MTT assay; format: functional, cell-based
[25] = system: DU-145; assay: Antiproliferative activity against human DU145 cells at 40 uM incubated for 72 hrs by MTT assay relative to control; format: functional
[26] = system: PC-3; assay: Antiproliferative activity against human PC3 cells incubated for 72 hrs by MTT assay; format: functional, cell-based
[27] = system: DU-145; assay: Antiproliferative activity against human DU145 cells incubated for 72 hrs by MTT assay; format: functional, cell-based

Compound	[3H]PDBu displacement (active/not active) [1]	Activity [3]	Activity [4]	Activity [5]	Activity [7]	Activity [8]	Activity [9]	Activity [10]	Activity [11]	Activity [12]	Activity [13]	Activity [14]	Activity [15]	Activity [22]	further results
CC(=O)O[C@@]12[C@H](OC(=O)CCCCCCCCCCCNC(=O)[C@H](CC(C)C)NC(=O)[C@H](CCC(N)=O)NC(=O)[C@H](CC(C)C)NC(=O)[C@H](CCCCN)NC(=O)[C@H](CO)NC(=O)[C@H](CO)NC(=O)[C@H](Cc3cnc[nH]3)NC(=O)N3CCOCC3)[C@@H](C)[C@@]3(O)[C@@H](C=C(CO)C[C@]4(O)C(=O)C(C)=C[C@@H]34)[C@@H]1C2(C)C ({Morpholide-CO}-HSSKLQL[12Ado]-X1)	inactive	inactive	inactive	inactive	Active	inactive	Active	–	–	–	–	–	–	–	Activity [2]: inactive; Activity [6]: 32%
CC(=O)O[C@@]12[C@H](OC(=O)CCCCCCCCCCCNC(=O)C[C@H](N)C(=O)N[C@@H](CCC(=O)N[C@@H](CCC(=O)N[C@@H](CCC(=O)N[C@@H](CCC(=O)O)C(=O)O)C(=O)O)C(=O)O)C(=O)O)[C@@H](C)[C@@]3(O)[C@@H](C=C(CO)C[C@]4(O)C(=O)C(C)=C[C@@H]34)[C@@H]1C2(C)C	Active	inactive	inactive	inactive	inactive	inactive	Active	inactive	Active	inactive	10%	inactive	–	–	–
CC(=O)NCC(=O)N[C@@H](CCCCN)C(=O)N[C@@H](C)C(=O)N[C@@H](Cc1ccccc1)C(=O)N[C@@H](CCCNC(=N)N)C(=O)N[C@@H](CCCNC(=N)N)C(=O)N[C@@H](CC(C)C)C(=O)NCCCCCCCCCCCC(=O)O[C@@H]1[C@@H](C)[C@@]2(O)[C@@H](C=C(CO)C[C@]3(O)C(=O)C(C)=C[C@@H]23)[C@@H]2C(C)(C)[C@]12OC(C)=O (Ac-GKAFRRL[12Ado]-X1)	Active	inactive	inactive	inactive	Active	inactive	Active	inactive	inactive	inactive	15%	inactive	25%	–	–
CCCCCCCCCCCCCC(=O)O[C@@H]1[C@@H](C)[C@@]2(O)[C@@H](C=C(CO)C[C@]3(O)C(=O)C(C)=C[C@@H]23)[C@@H]2C(C)(C)[C@]12OC(C)=O	Active	–	–	–	–	–	–	–	–	–	–	–	–	–	Activity [16]: Active; Activity [17]: Active
CC(=O)O[C@@]12[C@H](OC(=O)CCCCCCCCCCCNC(=O)C[C@H](N)C(C)C)[C@@H](C)[C@@]3(O)[C@@H](C=C(CO)C[C@]4(O)C(=O)C(C)=C[C@@H]34)[C@@H]1C2(C)C	Active	inactive	inactive	inactive	Active	inactive	Active	inactive	Active	inactive	–	inactive	–	–	Activity [18]: inactive; Activity [19]: inactive; Activity [20]: inactive; Activity [21]: inactive
C/C=C(/C)C(=O)O[C@H]1C(C)=C2[C@H]([C@@H]1OC(=O)CCCCCCC)[C@@](C)(OC(C)=O)C[C@H](OC(=O)CCCCCCCCCCCNC(=O)C[C@H](N)C(N)=O)[C@@]1(O)[C@H]2OC(=O)[C@@]1(C)O	–	–	–	–	–	–	–	–	–	–	15%	–	27%	4%	Activity [23]: Dose-dependent effect; Activity [24]: Dose-dependent effect; Activity [25]: 20%; Activity [26]: Dose-dependent effect; Activity [27]: Dose-dependent effect
C/C=C(/C)C(=O)O[C@H]1C(C)=C2[C@H]([C@@H]1OC(=O)CCCCCCC)[C@@](C)(OC(C)=O)C[C@H](OC(=O)CCCCCCCCCCCNC(=O)C[C@H](N)C(=O)N[C@@H](CCC(=O)N[C@@H](CCC(=O)N[C@@H](CCC(=O)N[C@@H](CCC(=O)O)C(=O)O)C(=O)O)C(=O)O)C(=O)O)[C@@]1(O)[C@H]2OC(=O)[C@@]1(C)O [MIPSAGARGIN]	–	–	–	–	–	–	–	–	–	–	32%	–	40%	35%	–
CC(=O)O[C@@]12[C@H](OC(=O)CCCCCCCCCCCNC(=O)[C@@H](N)CC(C)C)[C@@H](C)[C@@]3(O)[C@@H](C=C(CO)C[C@]4(O)C(=O)C(C)=C[C@@H]34)[C@@H]1C2(C)C	Active	inactive	inactive	inactive	Active	inactive	Active	inactive	inactive	inactive	30%	inactive	10%	60%	Activity [25]: 40%
